Test results as given in PMC11871066, “Structure-based discovery of hydrocarbon-stapled paxillin peptides that block FAK scaffolding in cancer” (Nature Communications, 2025).

Tests used:
Assay in all cases: Eurofins KINOMEscan profiling, 97 kinases
[1] = biological target: 97 kinases (kinase named in endpoint) (Homo sapiens, UniProt O00750); details: read-out: % Ctrl, PIK3C2B
Procedure: (§1) This experiment was performed by Eurofins KINOMEscan™ Profiling Service. […] The lysates were centrifuged and filtered, the remaining kinases were produced in HEK-293 cells and subsequently tagged with DNA for qPCR detection. […] The liganded beads were blocked with excess biotin and washed with blocking buffer (SeaBlock (Pierce), 1% BSA, 0.05% Tween-20, 1 mM DTT). […] Test compounds were prepared as 100x stocks in 100% DMSO and directly diluted into the assay. All reactions were performed in polypropylene 384-well plates in a final volume of 0.02 ml. […] The kinase concentration in the eluates was measured by qPCR.
(§2) (negative control signal - positive control signal)] x 100. ( b) AccompanyingSelectivity Scores or S -scores
(§3) which are quantitative measures of compound selectivity. They are calculated by dividing the number of
(§4) kinases that compounds bind to by the total number of distinct kinases tested, excluding mutant variants.
(§5) S(35)= ( num ber of non -mutant kinases with %Ctrl <35)/(number of non- mutant kinases tested)], S(10)=
(§6) non- mutant kinases with %Ctrl <1)/(number of non- mutant kinases tested)].

[2] = biological target: 97 kinases (kinase named in endpoint) (Homo sapiens, UniProt O96013); details: read-out: % Ctrl, PAK4
Procedure: as §1, §2, §3, §4, §5, §6

[3] = biological target: 97 kinases (kinase named in endpoint) (Homo sapiens, UniProt P04049); details: read-out: % Ctrl, RAF1
Procedure: as §1, §2, §3, §4, §5, §6

[4] = biological target: 97 kinases (kinase named in endpoint) (Homo sapiens, UniProt P04626); details: read-out: % Ctrl, ERBB2
Procedure: as §1, §2, §3, §4, §5, §6

[5] = biological target: 97 kinases (kinase named in endpoint) (Homo sapiens, UniProt P08581); details: read-out: % Ctrl, MET
Procedure: as §1, §2, §3, §4, §5, §6

[6] = biological target: 97 kinases (kinase named in endpoint) (Homo sapiens, UniProt P09619); details: read-out: % Ctrl, PDGFRB
Procedure: as §1, §2, §3, §4, §5, §6

[7] = biological target: 97 kinases (kinase named in endpoint) (Homo sapiens, UniProt P10721, T670I/V559D); details: read-out: % Ctrl, KIT(V559D,T670I)
Procedure: as §1, §2, §3, §4, §5, §6

[8] = biological target: 97 kinases (kinase named in endpoint) (Homo sapiens, UniProt P11309); details: read-out: % Ctrl, PIM1
Procedure: as §1, §2, §3, §4, §5, §6

[9] = biological target: 97 kinases (kinase named in endpoint) (Homo sapiens, UniProt P17612); details: read-out: % Ctrl, PKAC-alpha
Procedure: as §1, §2, §3, §4, §5, §6

[10] = biological target: 97 kinases (kinase named in endpoint) (Homo sapiens, UniProt P27448); details: read-out: % Ctrl, MARK3
Procedure: as §1, §2, §3, §4, §5, §6

[11] = biological target: 97 kinases (kinase named in endpoint) (Homo sapiens, UniProt P29317); details: read-out: % Ctrl, EPHA2
Procedure: as §1, §2, §3, §4, §5, §6

[12] = biological target: 97 kinases (kinase named in endpoint) (Homo sapiens, UniProt P31751); details: read-out: % Ctrl, AKT2
Procedure: as §1, §2, §3, §4, §5, §6

[13] = biological target: 97 kinases (kinase named in endpoint) (Homo sapiens, UniProt P36888); details: read-out: % Ctrl, FLT3
Procedure: as §1, §2, §3, §4, §5, §6

[14] = biological target: 97 kinases (kinase named in endpoint) (Homo sapiens, UniProt P36897); details: read-out: % Ctrl, TGFBR1
Procedure: as §1, §2, §3, §4, §5, §6

[15] = biological target: 97 kinases (kinase named in endpoint) (Homo sapiens, UniProt P48736); details: read-out: % Ctrl, PIK3CG
Procedure: as §1, §2, §3, §4, §5, §6

[16] = biological target: 97 kinases (kinase named in endpoint) (Homo sapiens, UniProt P49137); details: read-out: % Ctrl, MAPKAPK2
Procedure: as §1, §2, §3, §4, §5, §6

[17] = biological target: 97 kinases (kinase named in endpoint) (Homo sapiens, UniProt P49841); details: read-out: % Ctrl, GSK3B
Procedure: as §1, §2, §3, §4, §5, §6

[18] = biological target: 97 kinases (kinase named in endpoint) (Homo sapiens, UniProt P51812); details: read-out: % Ctrl, RSK2(Kin.Dom.1-N-terminal)
Procedure: as §1, §2, §3, §4, §5, §6

[19] = biological target: 97 kinases (kinase named in endpoint) (Homo sapiens, UniProt P52333); details: read-out: % Ctrl, JAK3(JH1domain-catalytic)
Procedure: as §1, §2, §3, §4, §5, §6

[20] = biological target: 97 kinases (kinase named in endpoint) (Homo sapiens, UniProt Q00536); details: read-out: % Ctrl, PCTK1
Procedure: as §1, §2, §3, §4, §5, §6

[21] = biological target: 97 kinases (kinase named in endpoint) (Homo sapiens, UniProt Q02156); details: read-out: % Ctrl, PRKCE
Procedure: as §1, §2, §3, §4, §5, §6

[22] = biological target: 97 kinases (kinase named in endpoint) (Homo sapiens, UniProt Q13177); details: read-out: % Ctrl, PAK2
Procedure: as §1, §2, §3, §4, §5, §6

[23] = biological target: 97 kinases (kinase named in endpoint) (Homo sapiens, UniProt Q15759); details: read-out: % Ctrl, p38-beta
Procedure: as §1, §2, §3, §4, §5, §6

[24] = biological target: 97 kinases (kinase named in endpoint) (Homo sapiens, UniProt Q8NI60); details: read-out: % Ctrl, ADCK3
Procedure: as §1, §2, §3, §4, §5, §6

[25] = biological target: 97 kinases (kinase named in endpoint) (Homo sapiens, UniProt Q9BUB5); details: read-out: % Ctrl, MKNK1
Procedure: as §1, §2, §3, §4, §5, §6

[26] = biological target: 97 kinases (kinase named in endpoint) (Homo sapiens, UniProt Q9BXA7); details: read-out: % Ctrl, TSSK1B
Procedure: as §1, §2, §3, §4, §5, §6

[27] = biological target: 97 kinases (kinase named in endpoint) (Homo sapiens, UniProt Q9H093); details: read-out: % Ctrl, SNARK
Procedure: as §1, §2, §3, §4, §5, §6

[28] = biological target: 97 kinases (kinase named in endpoint) (Homo sapiens, UniProt Q9Y463); details: read-out: % Ctrl, DYRK1B
Procedure: as §1, §2, §3, §4, §5, §6

97 kinases (kinase named in endpoint) (Homo sapiens, UniProt P09619), sequence (P09619 33-1106): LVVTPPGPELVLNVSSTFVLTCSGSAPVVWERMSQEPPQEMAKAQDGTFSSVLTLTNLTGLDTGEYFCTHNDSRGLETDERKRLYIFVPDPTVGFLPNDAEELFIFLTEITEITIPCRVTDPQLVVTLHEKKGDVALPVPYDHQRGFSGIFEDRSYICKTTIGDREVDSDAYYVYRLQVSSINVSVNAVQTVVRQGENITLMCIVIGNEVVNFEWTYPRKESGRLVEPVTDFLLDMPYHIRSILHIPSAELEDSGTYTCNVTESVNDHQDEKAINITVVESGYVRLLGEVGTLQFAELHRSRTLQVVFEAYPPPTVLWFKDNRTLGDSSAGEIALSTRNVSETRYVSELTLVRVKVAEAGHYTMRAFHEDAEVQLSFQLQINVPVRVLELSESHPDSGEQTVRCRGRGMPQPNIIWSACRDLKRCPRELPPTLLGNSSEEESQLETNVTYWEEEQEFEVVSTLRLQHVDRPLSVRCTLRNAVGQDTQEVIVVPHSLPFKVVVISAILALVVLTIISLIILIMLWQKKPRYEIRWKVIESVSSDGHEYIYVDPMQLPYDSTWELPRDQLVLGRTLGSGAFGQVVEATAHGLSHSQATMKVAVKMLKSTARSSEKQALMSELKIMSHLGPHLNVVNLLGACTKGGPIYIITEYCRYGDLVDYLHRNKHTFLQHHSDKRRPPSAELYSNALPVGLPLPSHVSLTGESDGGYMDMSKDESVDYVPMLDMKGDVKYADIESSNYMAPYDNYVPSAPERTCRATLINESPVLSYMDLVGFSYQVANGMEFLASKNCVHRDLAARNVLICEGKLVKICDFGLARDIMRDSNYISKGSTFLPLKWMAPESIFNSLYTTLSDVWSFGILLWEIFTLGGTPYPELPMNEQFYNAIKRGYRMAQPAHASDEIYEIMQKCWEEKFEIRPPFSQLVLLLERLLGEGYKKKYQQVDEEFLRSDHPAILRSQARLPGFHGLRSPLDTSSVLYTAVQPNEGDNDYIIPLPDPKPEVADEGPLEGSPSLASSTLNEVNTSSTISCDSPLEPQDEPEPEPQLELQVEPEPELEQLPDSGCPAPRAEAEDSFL
97 kinases (kinase named in endpoint) (Homo sapiens, UniProt P08581), sequence (P08581 25-1390): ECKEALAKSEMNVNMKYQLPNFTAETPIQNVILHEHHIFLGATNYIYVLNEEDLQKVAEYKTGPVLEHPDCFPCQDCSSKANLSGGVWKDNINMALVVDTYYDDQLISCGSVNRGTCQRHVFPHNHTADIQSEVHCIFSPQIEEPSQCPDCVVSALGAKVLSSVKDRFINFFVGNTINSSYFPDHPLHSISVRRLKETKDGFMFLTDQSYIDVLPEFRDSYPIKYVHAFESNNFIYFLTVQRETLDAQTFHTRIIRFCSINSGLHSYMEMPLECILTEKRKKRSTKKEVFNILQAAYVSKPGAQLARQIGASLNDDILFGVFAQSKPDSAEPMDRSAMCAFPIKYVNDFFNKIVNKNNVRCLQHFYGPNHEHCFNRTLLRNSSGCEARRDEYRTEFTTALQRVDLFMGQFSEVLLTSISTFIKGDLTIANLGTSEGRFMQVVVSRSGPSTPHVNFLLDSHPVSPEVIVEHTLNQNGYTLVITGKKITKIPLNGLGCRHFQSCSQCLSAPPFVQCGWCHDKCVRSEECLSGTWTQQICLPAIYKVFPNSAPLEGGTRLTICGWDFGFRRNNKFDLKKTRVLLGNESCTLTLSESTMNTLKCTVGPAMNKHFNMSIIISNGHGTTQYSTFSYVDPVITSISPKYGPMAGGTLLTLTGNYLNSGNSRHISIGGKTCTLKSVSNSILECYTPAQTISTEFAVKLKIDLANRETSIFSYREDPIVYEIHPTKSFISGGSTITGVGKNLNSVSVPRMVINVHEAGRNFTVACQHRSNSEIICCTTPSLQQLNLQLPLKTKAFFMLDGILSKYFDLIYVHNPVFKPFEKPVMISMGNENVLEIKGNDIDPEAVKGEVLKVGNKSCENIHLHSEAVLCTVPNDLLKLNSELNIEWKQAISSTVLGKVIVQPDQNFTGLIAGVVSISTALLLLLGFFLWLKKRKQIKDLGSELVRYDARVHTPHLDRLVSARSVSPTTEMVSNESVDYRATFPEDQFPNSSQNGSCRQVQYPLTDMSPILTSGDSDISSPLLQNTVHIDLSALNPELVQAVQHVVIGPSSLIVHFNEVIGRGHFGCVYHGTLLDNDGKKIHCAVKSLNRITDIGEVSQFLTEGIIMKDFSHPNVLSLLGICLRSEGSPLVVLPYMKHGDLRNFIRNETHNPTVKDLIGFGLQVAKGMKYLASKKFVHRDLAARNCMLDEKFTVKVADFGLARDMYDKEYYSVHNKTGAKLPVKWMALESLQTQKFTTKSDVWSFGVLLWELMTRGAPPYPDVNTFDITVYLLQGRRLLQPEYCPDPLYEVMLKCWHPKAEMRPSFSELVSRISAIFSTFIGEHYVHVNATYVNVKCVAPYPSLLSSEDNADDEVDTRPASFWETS
97 kinases (kinase named in endpoint) (Homo sapiens, UniProt P27448), sequence (P27448 whole entry): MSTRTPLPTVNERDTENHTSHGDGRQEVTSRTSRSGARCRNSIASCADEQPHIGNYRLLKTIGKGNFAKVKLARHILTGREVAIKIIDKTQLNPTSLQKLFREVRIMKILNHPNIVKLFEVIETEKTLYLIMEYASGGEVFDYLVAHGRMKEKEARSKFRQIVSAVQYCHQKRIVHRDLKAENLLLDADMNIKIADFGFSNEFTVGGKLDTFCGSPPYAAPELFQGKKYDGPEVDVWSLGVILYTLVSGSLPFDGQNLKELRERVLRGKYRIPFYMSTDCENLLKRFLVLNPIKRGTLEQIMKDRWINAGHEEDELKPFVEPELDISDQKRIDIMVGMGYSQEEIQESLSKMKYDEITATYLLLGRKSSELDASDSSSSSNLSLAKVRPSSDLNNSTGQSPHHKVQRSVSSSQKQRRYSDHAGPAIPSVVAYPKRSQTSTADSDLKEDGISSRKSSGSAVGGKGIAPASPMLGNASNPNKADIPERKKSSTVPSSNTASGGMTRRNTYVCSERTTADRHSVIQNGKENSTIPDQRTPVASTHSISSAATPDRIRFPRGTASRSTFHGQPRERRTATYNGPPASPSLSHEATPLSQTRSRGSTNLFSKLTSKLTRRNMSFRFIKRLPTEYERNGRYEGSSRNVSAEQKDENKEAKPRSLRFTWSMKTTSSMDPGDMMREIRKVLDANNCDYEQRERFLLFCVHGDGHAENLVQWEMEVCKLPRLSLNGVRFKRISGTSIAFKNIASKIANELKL
97 kinases (kinase named in endpoint) (Homo sapiens, UniProt P10721, T670I/V559D), sequence (P10721 26-976 V559D/T670I): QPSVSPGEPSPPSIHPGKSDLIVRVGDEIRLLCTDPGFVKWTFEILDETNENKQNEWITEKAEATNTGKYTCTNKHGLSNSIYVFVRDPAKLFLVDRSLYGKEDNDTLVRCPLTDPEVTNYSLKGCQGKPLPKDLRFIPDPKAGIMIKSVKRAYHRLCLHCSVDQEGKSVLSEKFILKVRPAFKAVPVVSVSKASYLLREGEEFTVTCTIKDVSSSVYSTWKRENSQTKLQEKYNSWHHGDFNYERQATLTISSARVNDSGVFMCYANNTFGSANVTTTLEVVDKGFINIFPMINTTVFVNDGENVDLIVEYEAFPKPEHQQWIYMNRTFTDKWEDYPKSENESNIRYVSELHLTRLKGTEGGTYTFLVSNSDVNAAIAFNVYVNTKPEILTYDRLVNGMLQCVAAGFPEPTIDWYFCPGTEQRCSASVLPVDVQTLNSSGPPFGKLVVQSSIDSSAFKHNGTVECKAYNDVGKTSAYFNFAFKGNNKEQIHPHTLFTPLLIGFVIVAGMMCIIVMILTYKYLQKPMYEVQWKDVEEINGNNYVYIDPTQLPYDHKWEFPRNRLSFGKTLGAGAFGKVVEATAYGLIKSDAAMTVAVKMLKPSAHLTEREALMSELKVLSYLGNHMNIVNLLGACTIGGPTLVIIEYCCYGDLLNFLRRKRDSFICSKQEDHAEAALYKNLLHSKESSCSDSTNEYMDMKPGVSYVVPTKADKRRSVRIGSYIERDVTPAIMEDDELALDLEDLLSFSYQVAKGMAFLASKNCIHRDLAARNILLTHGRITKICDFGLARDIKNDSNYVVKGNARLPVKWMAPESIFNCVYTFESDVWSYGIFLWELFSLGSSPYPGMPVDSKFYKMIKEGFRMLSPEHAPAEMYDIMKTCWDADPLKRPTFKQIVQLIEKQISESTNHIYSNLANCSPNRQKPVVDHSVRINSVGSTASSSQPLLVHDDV
97 kinases (kinase named in endpoint) (Homo sapiens, UniProt Q00536), sequence (Q00536 whole entry): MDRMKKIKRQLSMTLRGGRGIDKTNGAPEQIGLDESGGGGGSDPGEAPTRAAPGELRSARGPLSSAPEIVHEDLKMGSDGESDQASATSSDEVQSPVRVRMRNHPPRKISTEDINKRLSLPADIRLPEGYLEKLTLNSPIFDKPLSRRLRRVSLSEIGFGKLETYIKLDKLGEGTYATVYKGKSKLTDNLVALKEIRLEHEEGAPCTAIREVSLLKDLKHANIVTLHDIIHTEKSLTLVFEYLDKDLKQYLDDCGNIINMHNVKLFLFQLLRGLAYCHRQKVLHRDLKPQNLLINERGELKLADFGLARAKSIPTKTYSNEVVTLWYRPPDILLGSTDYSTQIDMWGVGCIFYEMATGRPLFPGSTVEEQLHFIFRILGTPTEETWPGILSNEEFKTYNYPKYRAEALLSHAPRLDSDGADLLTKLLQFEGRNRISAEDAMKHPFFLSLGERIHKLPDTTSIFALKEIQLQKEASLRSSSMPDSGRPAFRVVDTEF
97 kinases (kinase named in endpoint) (Homo sapiens, UniProt P49841), sequence (P49841 whole entry): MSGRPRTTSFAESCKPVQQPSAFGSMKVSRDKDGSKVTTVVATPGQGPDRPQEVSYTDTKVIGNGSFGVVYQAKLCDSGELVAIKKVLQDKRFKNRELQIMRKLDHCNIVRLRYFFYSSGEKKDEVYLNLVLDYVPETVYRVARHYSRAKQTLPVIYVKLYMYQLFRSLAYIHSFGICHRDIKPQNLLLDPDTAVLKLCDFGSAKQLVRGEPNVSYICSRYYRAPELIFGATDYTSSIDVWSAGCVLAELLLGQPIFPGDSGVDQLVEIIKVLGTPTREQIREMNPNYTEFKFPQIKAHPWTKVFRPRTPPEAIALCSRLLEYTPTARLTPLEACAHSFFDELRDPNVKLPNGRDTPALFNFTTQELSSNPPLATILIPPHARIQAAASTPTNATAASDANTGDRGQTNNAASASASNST

## CNC(=O)c1ccc(Nc2ncc(C(F)(F)F)c(NCc3nccnc3N(C)S(C)(=O)=O)n2)cc1 [defactinib]
[1]
  remaining binding at 1 µM: 100%
[2]
  remaining binding at 1 µM: 7.4%
[3]
  remaining binding at 1 µM: 86%
[4]
  remaining binding at 1 µM: 65%
[5]
  remaining binding at 1 µM: 15%
[6]
  remaining binding at 1 µM: 18%
[7]
  remaining binding at 1 µM: 37%
[8]
  remaining binding at 1 µM: 73%
[9]
  remaining binding at 1 µM: 72%
[10]
  remaining binding at 1 µM: 50%
[11]
  remaining binding at 1 µM: 86%
[12]
  remaining binding at 1 µM: 95%
[13]
  remaining binding at 1 µM: 1.1%
[14]
  remaining binding at 1 µM: 91%
[15]
  remaining binding at 1 µM: 85%
[16]
  remaining binding at 1 µM: 100%
[17]
  remaining binding at 1 µM: 75%
[18]
  remaining binding at 1 µM: 9.9%
[19]
  remaining binding at 1 µM: 0%
[20]
  remaining binding at 1 µM: 48%
[21]
  remaining binding at 1 µM: 42%
[22]
  remaining binding at 1 µM: 45%
[23]
  remaining binding at 1 µM: 89%
[24]
  remaining binding at 1 µM: 93%
[25]
  remaining binding at 1 µM: 100%
[26]
  remaining binding at 1 µM: 82%
[27]
  remaining binding at 1 µM: 13%
[28]
  remaining binding at 1 µM: 14%

## CCCCCCCCCCCCCC(=O)N[C@@H](CC(N)=O)C(=O)N[C@@H](CC(C)C)C(=O)N[C@]1(C)CCCCCCC=CCCC[C@@](C)(C(=O)N[C@@H](CCC(=O)O)C(=O)N[C@@H](CC(C)C)C(=O)N[C@@H](CC(N)=O)C(N)=O)NC(=O)[C@H](CC(C)C)NC(=O)[C@H](CC(C)C)NC(=O)[C@H](CCCNC(=N)N)NC(=O)[C@H](CC(=O)O)NC(=O)[C@H](CC(C)C)NC(=O)[C@H](CCC(=O)O)NC1=O [compound 2012]
[1]
  remaining binding at 1 µM: 100%
[2]
  remaining binding at 1 µM: 100%
[3]
  remaining binding at 1 µM: 81%
[4]
  remaining binding at 1 µM: 55%
[5]
  remaining binding at 1 µM: 100%
[6]
  remaining binding at 1 µM: 94%
[7]
  remaining binding at 1 µM: 93%
[8]
  remaining binding at 1 µM: 100%
[9]
  remaining binding at 1 µM: 91%
[10]
  remaining binding at 1 µM: 91%
[11]
  remaining binding at 1 µM: 98%
[12]
  remaining binding at 1 µM: 93%
[13]
  remaining binding at 1 µM: 93%
[14]
  remaining binding at 1 µM: 93%
[15]
  remaining binding at 1 µM: 99%
[16]
  remaining binding at 1 µM: 100%
[17]
  remaining binding at 1 µM: 100%
[18]
  remaining binding at 1 µM: 100%
[19]
  remaining binding at 1 µM: 83%
[20]
  remaining binding at 1 µM: 100%
[21]
  remaining binding at 1 µM: 53%
[22]
  remaining binding at 1 µM: 100%
[23]
  remaining binding at 1 µM: 98%
[24]
  remaining binding at 1 µM: 100%
[25]
  remaining binding at 1 µM: 100%
[26]
  remaining binding at 1 µM: 98%
[27]
  remaining binding at 1 µM: 100%
[28]
  remaining binding at 1 µM: 91%
